AC50, EC50 and IC50 data for three compounds are collected here from ChEMBL document CHEMBL1201862, “PubChem BioAssay data set” (2004).

The source made the active and inactive calls. A value given as a limit tells only on which side of the number the result lay.

Experiment [1] is described as follows: MC4R antagonists, dose response, counter-screen for LGR2 antagonist project, cell-based, plate reader, cherry pick (AID 743444).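 Note: transfected HEK 293 cells stimulated with alpha-MSH peptide; potency of inhibitors of the alpha-MSH evoked signal.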 The class given is functional. (Counterscreens check selectivity or assay interference.)
Experiment [2] is described as follows: LGR2 antagonists, dose response, cell-based, HEK293, CRE-luciferase reporter, cherry pick, set 2 (AID 743343).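 Note: transfected cells were stimulated with diluted bursicon conditioned medium after compound addition.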 It counts as functional. (In general: In a reporter assay the amount or activity of a reporter protein is the signal.)
Experiment [3] addresses Luciferin 4-monooxygenase (Photinus pyralis, UniProt P08659). Description: Counter Screen for Luciferase-based Assay Positives. [Related pubchem assays: 620, 618, 411 ].
A short description of experiment [4]: HEK293 cell cytotoxicity, dose response, cytotoxicity control, plate reader, cherry-picked samples (AID 743446). The class given is functional, cell-based.
The test system of another experiment is HT-1080. Description: cytotoxicity in HT1080 fibrosarcoma cells, cell-based, fluorescence readout (AID 620). The class given is functional. The conditions noted are these: Homo sapiens.
Experiment [5] is described as follows: A549 cell cytotoxicity, dose response, cytotoxicity control, plate reader, cherry-pick, antagonist series (AID 743412). The class given is functional, cell-based.
The target in the next experiment is T1, Insulin-degrading enzyme (Homo sapiens, UniProt P14735).
T1 sequence (P14735 whole entry): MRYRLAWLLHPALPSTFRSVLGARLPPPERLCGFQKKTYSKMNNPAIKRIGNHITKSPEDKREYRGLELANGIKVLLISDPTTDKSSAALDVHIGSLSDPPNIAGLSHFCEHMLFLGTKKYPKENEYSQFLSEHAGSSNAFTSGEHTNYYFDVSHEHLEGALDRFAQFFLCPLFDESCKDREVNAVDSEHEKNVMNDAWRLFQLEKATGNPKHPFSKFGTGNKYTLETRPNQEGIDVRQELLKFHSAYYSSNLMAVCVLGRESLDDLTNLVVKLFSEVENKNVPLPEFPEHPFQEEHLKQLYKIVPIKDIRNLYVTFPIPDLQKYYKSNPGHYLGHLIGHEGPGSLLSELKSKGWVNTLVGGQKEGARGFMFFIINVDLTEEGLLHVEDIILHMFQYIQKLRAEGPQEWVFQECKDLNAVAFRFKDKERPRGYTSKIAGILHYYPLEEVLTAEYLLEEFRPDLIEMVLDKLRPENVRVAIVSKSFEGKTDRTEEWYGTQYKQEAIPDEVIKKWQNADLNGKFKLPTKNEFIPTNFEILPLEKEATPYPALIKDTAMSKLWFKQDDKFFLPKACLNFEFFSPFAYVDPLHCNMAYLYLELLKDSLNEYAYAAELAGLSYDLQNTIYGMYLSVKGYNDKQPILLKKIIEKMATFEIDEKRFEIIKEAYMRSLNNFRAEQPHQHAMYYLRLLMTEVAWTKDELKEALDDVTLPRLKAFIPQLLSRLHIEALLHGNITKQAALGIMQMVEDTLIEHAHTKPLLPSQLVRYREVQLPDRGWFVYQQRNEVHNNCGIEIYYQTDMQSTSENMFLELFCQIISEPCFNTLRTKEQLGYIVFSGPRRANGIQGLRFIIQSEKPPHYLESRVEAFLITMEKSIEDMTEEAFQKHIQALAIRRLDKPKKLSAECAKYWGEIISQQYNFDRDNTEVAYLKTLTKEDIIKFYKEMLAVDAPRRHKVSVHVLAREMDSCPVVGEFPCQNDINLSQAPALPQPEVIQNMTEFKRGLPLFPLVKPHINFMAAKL
Description: Dose Response: Fluorescence polarization-based cell-based high throughput dose response assay for inhibitors of insulin-degrading enzyme (IDE). [Related pubchem assays: 434962 (Primary screen (IDE inhibitors in singlicate)), 449730 (Counterscreen (Cytotoxicity in triplicate)), 435028 (Confirmation (IDE inhibitors in triplicate)), 434984 (Summary …. It counts as functional. (In general: Fluorescence polarisation rises when a labelled molecule tumbles more slowly, as on binding a larger partner.)

Experiment [6] can be described thus: Counterscreen for IDE inhibitors: Luminescence-based cell-based high throughput dose response assay to identify compounds that are cytotoxic to HEK cells. [Related pubchem assays: 434962 (Primary screen (IDE inhibitors in singlicate)), 449730 (Counterscreen (Cytotoxicity in triplicate)), 435028 (Confirmation (IDE inhibitors in triplicate)) …. The class given is functional. The conditions noted are these: HEK293.

A short description of experiment [7]: inhibitors of Bluetongue virus cytopathic effect, confirmation, arbovirus, BSR cells (AID 1250).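 Note: protection from viral cytopathic effect measured as cell viability by ATP luminescence.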 The class given is functional.
A short description of experiment [8]: Luminescence Cell-Based Dose Retest to Confirm Inhibitors of Cancer Stem Cells. [Related pubchem assays (depositor defined):AID2717, AID2721]. The class given is functional. The settings on record: Homo sapiens.

Sequence of Luciferin 4-monooxygenase (P08659 whole entry): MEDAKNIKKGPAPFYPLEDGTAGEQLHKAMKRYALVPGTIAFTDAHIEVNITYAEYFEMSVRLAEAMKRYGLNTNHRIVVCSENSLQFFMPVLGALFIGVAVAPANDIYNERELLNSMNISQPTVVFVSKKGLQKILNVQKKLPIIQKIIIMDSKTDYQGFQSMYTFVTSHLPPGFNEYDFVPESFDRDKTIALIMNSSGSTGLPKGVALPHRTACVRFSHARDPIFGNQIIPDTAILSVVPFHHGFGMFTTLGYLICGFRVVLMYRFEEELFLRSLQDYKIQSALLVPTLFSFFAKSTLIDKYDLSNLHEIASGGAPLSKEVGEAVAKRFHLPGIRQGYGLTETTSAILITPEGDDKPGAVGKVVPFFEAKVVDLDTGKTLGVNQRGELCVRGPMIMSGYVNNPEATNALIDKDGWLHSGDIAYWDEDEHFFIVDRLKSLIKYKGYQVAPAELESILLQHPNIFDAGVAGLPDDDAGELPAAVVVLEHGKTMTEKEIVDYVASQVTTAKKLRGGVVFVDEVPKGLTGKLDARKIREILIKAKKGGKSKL

Broadly, the AC50 is the concentration at which the activity in the assay is half-maximal. The term EC50 denotes the concentration giving half of the maximal effect. In the case of `CCOc1ccc(C(=O)NCCc2ccccc2)cc1`, the AC50 was 3.43 µM (active) in experiment [1], 4.83 µM (active) in experiment [2], > 52 µM (inactive) in experiment [4] and > 52 µM (inactive) in experiment [5]. Further, the EC50 in [3] was 1.09 µM (active); with HT-1080 it was > 50 µM (not active).

In general, IC50 refers to the concentration needed to halve the response being measured. With `CCOc1ccccc1-n1c(SCC(=O)N2CCCc3ccccc32)nnc1-c1cccnc1`, the half-inhibitory concentration (IC50) is reported as > 55.9 µM (not active) against Insulin-degrading enzyme and 24.8 µM (not active) in experiment [6].

As to `CC(C)(Oc1ccc(Cl)cc1)C(=O)NC1=NN(c2ccccc2)C(=O)C1`, the IC50 in experiment [7] was 31.8 µM (active). Also, the half-maximal activity concentration (AC50) in [8] was 3.91 µM (active).
